Experiment [1] deals with T1, KRAS WT (Homo sapiens (Human), UniProt P01116). The experiment in a line: KRAS WT Biochemical Assay, BODIPY-GDP Exchange TR-FRET (Example 502; 0.06 nM KRAS WT, 15 nM GDP, 300 nM SOS1, 120-minute incubation). Particulars: read-out: KRas HTRF IC50. The method, boiled down:
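Biotin-tagged recombinant KRAS WT (0.06 nM) preloaded with 15 nM GDP and Tb-streptavidin, 10 min RT, then exchange started with 300 nM SOS1 plus 300 nM BODIPY-GDP in HEPES pH 7.5 buffer with MgCl2. TR-FRET 520/490 ratio read after 120 min; normalized to DMSO and full-inhibition control; IC50 from 4-parameter fit.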
A general note: TR-FRET usually uses a lanthanide donor and a delayed reading to cut background.

The target of experiment [2] is T1, KRAS WT. Nature of the experiment: KRAS WT Biochemical Assay, BODIPY-GDP Exchange TR-FRET (Example 501; 3 nM KRAS WT, 3 nM SOS1, 60-minute incubation). As to conditions: read-out: KRas(wt) GDP HTRF IC50. The essentials:
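SOS1-mediated exchange assay: 3 nM biotin-KRAS WT with terbium-streptavidin, started with 3 nM SOS1 and 300 nM BODIPY-GDP, HEPES pH 7.5 with MgCl2. TR-FRET (520/490 nm) read after 60 min; normalized to DMSO and full-inhibition control, IC50 from 4-parameter Hill fit.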

The target of a further experiment is KRAS G12D (Homo sapiens (Human), UniProt P01116, G12D). The experiment in a line: KRAS G12D LoEnz Biochemical Assay, BODIPY-GDP Exchange TR-FRET (SOS1-mediated nucleotide exchange). As to conditions: read-out: KRas (G12D) GDP HTRF IC50.
Chain of KRAS G12D (P01116-2 other isoform, or with tags, fused parts or gaps G12D): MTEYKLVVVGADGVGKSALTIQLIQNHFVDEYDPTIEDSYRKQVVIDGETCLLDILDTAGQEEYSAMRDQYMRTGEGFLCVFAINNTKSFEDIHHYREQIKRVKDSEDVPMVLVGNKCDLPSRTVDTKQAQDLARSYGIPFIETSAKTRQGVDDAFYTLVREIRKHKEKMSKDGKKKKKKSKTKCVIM

The values below come from patent publication US20240025919A1, “AZA-TETRACYCLIC OXAZEPINE COMPOUNDS AND USES THEREOF” (Genentech, Inc., priority 2022, published 2024).

pIC50: −log10 of the molar value.

For orientation: pIC50 means −log10 of the IC50, conventionally taken in molar units.

T1 sequence (P01116-2 other isoform, or with tags, fused parts or gaps): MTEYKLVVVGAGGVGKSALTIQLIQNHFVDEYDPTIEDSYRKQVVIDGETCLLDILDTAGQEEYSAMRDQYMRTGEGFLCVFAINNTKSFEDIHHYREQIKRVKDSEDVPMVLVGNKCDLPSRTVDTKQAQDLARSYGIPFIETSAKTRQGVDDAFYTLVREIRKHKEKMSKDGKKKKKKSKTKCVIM

Turning to `Cc1c(F)c(N)cc(-c2nc3c4c(nc(OC[C@@]56CCCN5C[C@H](F)C6)nc4c2F)N2C[C@H]4CC[C@H](N4)[C@H]2[C@H](C)O3)c1C(F)(F)F` [Compound 6, 2-Fluoro-5-((5S,5aS,6S,9R)-1-fluoro-12-(((2R,7aS)-2-fluorotetrahydro-1H-pyrrolizin-7a(5H)-yl)methoxy)-5-methyl-5a,6,7,8,9,10-hexahydro-5H-4-oxa-3,10a,11,13,14-pentaaza-6,9-methanonaphtho[1,8-ab]heptalen-2-yl)-3-methyl-4-(trifluoromethyl)aniline], the pIC50 is 9.26 on KRAS WT [1], 9.32 at KRAS WT [2] and 10.13 on KRAS G12D.
For `Cc1c(F)c(N)c(F)c(-c2nc3c4c(nc(OC[C@@]56CCCN5C[C@H](F)C6)nc4c2F)N2C[C@H]4CC[C@H](N4)[C@H]2[C@H](C)O3)c1CC(F)F` [Compound 175, 4-(2,2-Difluoroethyl)-2,6-difluoro-3-((5S,5aS,6S,9R)-1-fluoro-12-(((2R,7aS)-2-fluorotetrahydro-1H-pyrrolizin-7a(5H)-yl)methoxy)-5-methyl-5a,6,7,8,9,10-hexahydro-5H-4-oxa-3,10a,11,13,14-pentaaza-6,9-methanonaphtho[1,8-ab]heptalen-2-yl)-5-methylaniline], the negative logarithm of the IC50 (pIC50) was 6.97 on KRAS WT [1] and 8.47 on KRAS G12D.
The like results for `Cc1cc2[nH]ncc2c(-c2nc3c4c(nc(OC[C@@]56CCCN5C[C@H](F)C6)nc4c2F)N2C[C@H]4CC[C@H](N4)[C@H]2[C@H](C)O3)c1Cl` [Compound 176, (5S,5aS,6S,9R)-2-(5-Chloro-6-methyl-1H-indazol-4-yl)-1-fluoro-12-(((2R,7aS)-2-fluorotetrahydro-1H-pyrrolizin-7a(5H)-yl)methoxy)-5-methyl-5a,6,7,8,9,10-hexahydro-5H-4-oxa-3,10a,11,13,14-pentaaza-6,9-methanonaphtho[1,8-ab]heptalene] were, in that order, 6.09 and 8.55.
For the compound `Cc1cc(-c2nc3c4c(nc(OC[C@@]56CCCN5C[C@H](F)C6)nc4c2F)N2C[C@H]4CC[C@H](N4)[C@H]2[C@H](C)O3)c(F)c(N)n1` [Compound 177, 3-Fluoro-4-((5S,5aS,6S,9R)-1-fluoro-12-(((2R,7aS)-2-fluorotetrahydro-1H-pyrrolizin-7°(5H)-yl)methoxy)-5-methyl-5°,6,7,8,9,10-hexahydro-5H-4-oxa-3,10°,11,13,14-pentaaza-6,9-methanonaphtho[1,8-ab]heptalen-2-yl)-6-methylpyridin-2-amine], the pIC50 at KRAS WT [1] was 4.93; at KRAS G12D it was 6.90.
For `CCc1cccc2nc(N)cc(-c3nc4c5c(nc(OC[C@@]67CCCN6C[C@H](F)C7)nc5c3F)N3C[C@H]5CC[C@H](N5)[C@H]3[C@H](C)O4)c12` [Compound 179, 5-Ethyl-4-((5S,5aS,6S,9R)-1-fluoro-12-(((2R,7aS)-2-fluorotetrahydro-1H-pyrrolizin-7a(5H)-yl)methoxy)-5-methyl-5a,6,7,8,9,10-hexahydro-5H-4-oxa-3,10a,11,13,14-pentaaza-6,9-methanonaphtho[1,8-ab]heptalene-2-yl)quinolin-2-amine], the pIC50 at KRAS WT [1] is 6.18; at KRAS G12D it was 8.18.
Taken in the same sequence, the figures for `Cc1c(F)c(N)cc(-c2nc3c4c(nc(OC[C@@]56CCCN5C[C@H](F)C6)nc4c2F)N2C[C@H]4CC[C@H](N4)[C@H]2[C@H](C)O3)c1S(C)(=O)=O` [Compound 180, 2-Fluoro-5-((5S,5aS,6S,9R)-1-fluoro-12-(((2R,7aS)-2-fluorotetrahydro-1H-pyrrolizin-7a(5H)-yl)methoxy)-5-methyl-5a,6,7,8,9,10-hexahydro-5H-4-oxa-3,10a,11,13,14-pentaaza-6,9-methanonaphtho[1,8-ab]heptalene-2-yl)-3-methyl-4-(methylsulfonyl)aniline] were 5.56 and 7.76.
